{"source": "ChEMBL document CHEMBL2396625", "about": "(Bioorg Med Chem Lett, 2013)", "key": {"DLD-1 [1]": {"system": "DLD-1", "assay": "Antimigratory activity against human DLD1 cells overexpressing PRL3 at 10 ug/ml after 20 hrs by crystal violet staining-based light microscopic analysis relative to control", "type": "functional", "conditions": "DLD-1, 20 h"}, "[2]": {"molecular_target": "T1, Receptor-type tyrosine-protein phosphatase C (Homo sapiens) (UniProt P08575)", "T1 sequence (whole entry)": "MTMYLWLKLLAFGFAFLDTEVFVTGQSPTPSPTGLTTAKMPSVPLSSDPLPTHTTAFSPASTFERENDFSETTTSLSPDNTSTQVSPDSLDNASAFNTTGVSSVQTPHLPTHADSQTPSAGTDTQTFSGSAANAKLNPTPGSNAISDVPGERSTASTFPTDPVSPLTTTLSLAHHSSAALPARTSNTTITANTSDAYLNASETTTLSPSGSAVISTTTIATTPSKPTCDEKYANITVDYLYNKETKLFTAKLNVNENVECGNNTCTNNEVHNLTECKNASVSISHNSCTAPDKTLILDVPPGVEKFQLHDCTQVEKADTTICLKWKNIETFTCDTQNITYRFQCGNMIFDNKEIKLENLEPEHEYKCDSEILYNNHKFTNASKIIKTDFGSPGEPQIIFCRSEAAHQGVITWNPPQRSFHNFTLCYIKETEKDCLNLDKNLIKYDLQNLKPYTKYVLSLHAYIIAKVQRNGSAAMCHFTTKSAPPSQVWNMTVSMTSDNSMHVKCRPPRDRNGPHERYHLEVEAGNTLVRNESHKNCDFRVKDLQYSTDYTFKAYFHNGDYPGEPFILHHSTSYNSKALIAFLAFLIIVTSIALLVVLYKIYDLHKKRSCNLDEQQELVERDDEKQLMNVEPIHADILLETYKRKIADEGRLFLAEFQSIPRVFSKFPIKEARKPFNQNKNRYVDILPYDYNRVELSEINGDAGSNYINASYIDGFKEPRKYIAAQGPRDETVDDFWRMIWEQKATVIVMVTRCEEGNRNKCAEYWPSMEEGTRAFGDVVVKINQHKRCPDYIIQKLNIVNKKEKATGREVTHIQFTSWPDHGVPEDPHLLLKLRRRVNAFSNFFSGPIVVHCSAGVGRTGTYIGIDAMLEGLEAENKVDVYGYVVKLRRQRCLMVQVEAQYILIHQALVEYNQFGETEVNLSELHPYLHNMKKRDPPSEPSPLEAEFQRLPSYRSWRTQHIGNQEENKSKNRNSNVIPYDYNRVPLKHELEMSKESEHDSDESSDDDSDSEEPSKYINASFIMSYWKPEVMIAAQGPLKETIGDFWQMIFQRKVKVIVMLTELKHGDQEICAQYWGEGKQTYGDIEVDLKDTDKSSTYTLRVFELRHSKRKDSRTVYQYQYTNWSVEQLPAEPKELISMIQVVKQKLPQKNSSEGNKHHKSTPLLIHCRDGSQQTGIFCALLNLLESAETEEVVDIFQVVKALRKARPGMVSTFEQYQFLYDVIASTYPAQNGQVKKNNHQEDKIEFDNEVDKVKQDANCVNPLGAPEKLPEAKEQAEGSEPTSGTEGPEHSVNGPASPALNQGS", "assay": "Inhibition of CD45 (unknown origin) using DiFMUP as substrate at 5 uM relative to control"}, "[3]": {"molecular_target": "T2, Tyrosine-protein phosphatase non-receptor type 1 (Homo sapiens) (UniProt P18031)", "T2 sequence (whole entry)": "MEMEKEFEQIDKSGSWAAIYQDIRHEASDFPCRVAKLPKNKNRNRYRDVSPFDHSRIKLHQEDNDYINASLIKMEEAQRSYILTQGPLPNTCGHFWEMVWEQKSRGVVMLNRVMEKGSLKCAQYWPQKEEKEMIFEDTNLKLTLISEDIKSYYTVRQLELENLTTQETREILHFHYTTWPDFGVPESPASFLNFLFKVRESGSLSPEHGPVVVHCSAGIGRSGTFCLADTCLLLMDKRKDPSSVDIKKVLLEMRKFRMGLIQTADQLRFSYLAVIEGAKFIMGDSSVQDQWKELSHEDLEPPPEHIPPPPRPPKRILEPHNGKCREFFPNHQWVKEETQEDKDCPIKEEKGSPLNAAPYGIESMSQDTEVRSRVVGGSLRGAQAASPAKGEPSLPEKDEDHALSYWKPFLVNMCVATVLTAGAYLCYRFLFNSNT", "assay": "Inhibition of PTP1B (unknown origin) using DiFMUP as substrate at 5 uM relative to control"}, "[4]": {"assay": "Cytotoxicity against human DLD1 cells overexpressing PRL3 assessed as cell viability at 10 ug/ml after 24 hrs by WST-1 assay relative to control", "type": "cell-based", "conditions": "DLD-1 cells overexpressing PRL3, read-out: Activity"}, "DLD-1 [5]": {"system": "DLD-1", "assay": "Antimigratory activity against human DLD1 cells overexpressing PRL3 at 20 uM after 20 hrs by crystal violet staining-based light microscopic analysis relative to control", "type": "functional", "conditions": "DLD-1, 20 h"}, "MIA PaCa-2": {"system": "MIA PaCa-2", "assay": "Antimigratory activity against human MIAPaCa2 cells overexpressing PRL3 at 10 to 20 uM after 20 hrs by crystal violet staining-based light microscopic analysis", "type": "functional, cell-based"}, "[6]": {"molecular_target": "T3, Tyrosine-protein phosphatase non-receptor type 11 (Homo sapiens) (UniProt Q06124)", "T3 sequence (whole entry)": "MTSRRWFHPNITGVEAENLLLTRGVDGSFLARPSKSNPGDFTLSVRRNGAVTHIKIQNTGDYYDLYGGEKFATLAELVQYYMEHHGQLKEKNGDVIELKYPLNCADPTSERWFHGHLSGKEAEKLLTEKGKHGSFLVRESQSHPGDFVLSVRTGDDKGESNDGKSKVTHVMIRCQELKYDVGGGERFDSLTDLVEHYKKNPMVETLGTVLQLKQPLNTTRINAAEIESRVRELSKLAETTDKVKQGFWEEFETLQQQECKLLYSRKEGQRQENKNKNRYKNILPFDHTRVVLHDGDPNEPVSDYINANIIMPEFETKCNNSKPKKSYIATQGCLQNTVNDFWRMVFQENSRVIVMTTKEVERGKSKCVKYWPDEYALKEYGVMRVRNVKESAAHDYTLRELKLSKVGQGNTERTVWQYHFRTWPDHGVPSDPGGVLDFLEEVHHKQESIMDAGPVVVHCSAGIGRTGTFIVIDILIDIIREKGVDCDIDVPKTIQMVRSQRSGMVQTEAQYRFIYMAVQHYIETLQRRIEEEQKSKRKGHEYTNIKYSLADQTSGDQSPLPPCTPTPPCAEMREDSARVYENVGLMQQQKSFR", "assay": "Inhibition of SHP2 (unknown origin) using DiFMUP as substrate at 5 uM relative to control"}, "DLD-1 [7]": {"system": "DLD-1", "assay": "Antiinvasive activity against human DLD1 cells overexpressing PRL3 at 20 uM after 20 hrs by crystal violet staining-based light microscopic analysis relative to control", "type": "functional", "conditions": "DLD-1, 20 h"}, "[8]": {"molecular_target": "Dual specificity protein phosphatase 3 (Homo sapiens) (UniProt P51452)", "sequence (P51452 whole entry, looked up)": "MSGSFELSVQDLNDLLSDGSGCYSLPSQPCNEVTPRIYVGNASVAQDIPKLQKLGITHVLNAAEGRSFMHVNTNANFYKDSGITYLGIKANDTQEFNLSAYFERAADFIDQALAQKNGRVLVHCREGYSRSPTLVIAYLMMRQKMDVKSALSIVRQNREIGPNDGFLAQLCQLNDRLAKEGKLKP", "assay": "Inhibition of VHR (unknown origin) using DiFMUP as substrate at 5 uM relative to control"}}, "note": "Calls of active or inactive are those of the source. The rule behind the calls is not given here.", "data": [{"smiles": "COc1ccccc1COc1ccccc1/C=C/C=C1\\SC(=S)NC1=O", "values": [{"measurement": "inhibition at 10 µg/mL", "setting": "DLD-1 [1]", "value": 98, "unit": "%"}, {"measurement": "inhibition", "setting": "[2]", "value": 11, "unit": "%"}, {"measurement": "inhibition", "setting": "[3]", "value": 8, "unit": "%"}, {"measurement": "viability at 24 h, 10 ug/ml", "setting": "[4]", "value": 99.5, "unit": "%"}, {"measurement": "inhibition at 20 µM", "setting": "DLD-1 [5]", "value": "> 90", "unit": "%"}, {"measurement": "Activity", "setting": "MIA PaCa-2", "value": "Active"}, {"measurement": "inhibition", "setting": "[6]", "value": 18, "unit": "%"}, {"measurement": "inhibition at 20 µM", "setting": "DLD-1 [7]", "value": "> 60", "unit": "%"}, {"measurement": "inhibition", "setting": "[8]", "value": 3, "unit": "%"}]}, {"smiles": "O=C1NC(=S)S/C1=C\\c1cc(Br)ccc1OCc1ccccc1Br", "values": [{"measurement": "inhibition at 10 µg/mL", "setting": "DLD-1 [1]", "value": 95, "unit": "%"}, {"measurement": "inhibition", "setting": "[2]", "value": 12, "unit": "%"}, {"measurement": "inhibition", "setting": "[3]", "value": 11, "unit": "%"}, {"measurement": "viability at 24 h, 10 ug/ml", "setting": "[4]", "value": 98.1, "unit": "%"}, {"measurement": "inhibition at 20 µM", "setting": "DLD-1 [5]", "value": "> 90", "unit": "%"}, {"measurement": "Activity", "setting": "MIA PaCa-2", "value": "Active"}, {"measurement": "inhibition", "setting": "[6]", "value": 27, "unit": "%"}, {"measurement": "inhibition at 20 µM", "setting": "DLD-1 [7]", "value": "> 60", "unit": "%"}, {"measurement": "inhibition", "setting": "[8]", "value": 7, "unit": "%"}]}]}
